Drawing on patent US20250312352A1, “GLP-1R MODULATING COMPOUNDS” (Gilead Sciences, Inc., priority 2021, published 2025), this text covers EC50 for 16 compounds.

Structures are written as SMILES.

In this assay the target is T1, GLP-1R (Homo sapiens, UniProt P43220).
T1 construct: host or cells: CHO cells
The assay can be described thus: GLP-1R activation cAMP assay (Assay 1 or Assay 2). Type of assay: cell-based. Particulars: cAMP increase in CHO cells stably expressing GLP-1R; compounds run on one of the two cAMP assays. An outline of the steps:
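CHO cells stably expressing human GLP-1R were incubated 1 h in HBSS/20 mM HEPES/0.1% BSA, then exposed to 10-point agonist dilutions for 30 min at 37 °C. cAMP increase was measured with an HTRF Gs dynamic kit; EC50 from sigmoidal fit of response versus log concentration.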
(In general: cAMP levels reflect the balance of adenylyl cyclase and phosphodiesterase activity.)

The EC50 is the concentration giving half of the maximal effect. The low end stands for a more potent agent, the high end for a less potent agent.

T1 sequence (P43220 24-463): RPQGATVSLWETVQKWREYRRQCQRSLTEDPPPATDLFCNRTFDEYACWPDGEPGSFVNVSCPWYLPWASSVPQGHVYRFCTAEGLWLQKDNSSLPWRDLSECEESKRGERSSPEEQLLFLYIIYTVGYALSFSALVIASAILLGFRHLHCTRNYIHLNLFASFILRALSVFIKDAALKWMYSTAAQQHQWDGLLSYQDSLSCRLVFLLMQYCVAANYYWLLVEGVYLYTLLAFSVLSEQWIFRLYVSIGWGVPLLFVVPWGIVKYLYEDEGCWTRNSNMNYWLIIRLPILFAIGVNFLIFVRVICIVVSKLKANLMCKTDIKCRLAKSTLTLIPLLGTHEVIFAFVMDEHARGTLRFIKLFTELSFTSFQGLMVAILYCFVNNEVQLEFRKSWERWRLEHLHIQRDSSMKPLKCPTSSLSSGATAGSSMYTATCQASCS

In turn, `CNC(=O)c1cc(Cl)c(COc2cccc(-c3cc(Cl)c(Cc4nc5c(F)cc(C(=O)O)cc5n4CCOC)cc3F)n2)cn1` [Example 386, 2-(2-chloro-4-(6-((4-chloro-6-(methylcarbamoyl)pyridin-3-yl)methoxy)pyridin-2-yl)-5-fluorobenzyl)-4-fluoro-1-(2-methoxyethyl)-1H-benzo[d]imidazole-6-carboxylic acid] gave an EC50 of 0.121 nM. To `O=C(O)c1cc(F)c2nc(Cc3cc(F)c(-c4ccc(F)c(OCc5ncc(-c6cnn(C(F)F)c6)s5)c4)cc3F)n(C[C@@H]3CCO3)c2c1` [Example 387, (S)-2-((3′-((5-(1-(difluoromethyl)-1H-pyrazol-4-yl)thiazol-2-yl)methoxy)-2,4′,5-trifluoro-[1,1′-biphenyl]-4-yl)methyl)-4-fluoro-1-(oxetan-2-ylmethyl)-1H-benzo[d]imidazole-6-carboxylic acid] belongs 0.095 nM; to `CNC(=O)c1cc(Cl)c(COc2cc(-c3cc(F)c(Cc4nc5c(F)cc(C(=O)O)cc5n4C[C@@H]4CCO4)cc3F)ccc2F)cn1` [Example 388, (S)-2-((3′-((4-chloro-6-(methylcarbamoyl)pyridin-3-yl)methoxy)-2,4′,5-trifluoro-[1,1′-biphenyl]-4-yl)methyl)-4-fluoro-1-(oxetan-2-ylmethyl)-1H-benzo[d]imidazole-6-carboxylic acid], 0.186 nM; to `COc1nnc(COc2cc(-c3cc(F)c(Cc4nc5c(F)cc(C(=O)O)cc5n4C[C@@H]4CCO4)cc3F)ccc2F)s1` [Example 389, (S)-4-fluoro-1-(oxetan-2-ylmethyl)-2-((2,4′,5-trifluoro-3′-((5-methoxy-1,3,4-thiadiazol-2-yl)methoxy)-[1,1′-biphenyl]-4-yl)methyl)-1H-benzo[d]imidazole-6-carboxylic acid], 0.257 nM. With `O=C(O)c1cc(F)c2nc(Cc3cc(F)c(-c4cccc(OCc5ncc(C#Cc6cncs6)cc5F)n4)cc3F)n(C[C@@H]3CCO3)c2c1` [Example 390, (S)-2-(2,5-difluoro-4-(6-((3-fluoro-5-(thiazol-5-ylethynyl)pyridin-2-yl)methoxy)pyridin-2-yl)benzyl)-4-fluoro-1-(oxetan-2-ylmethyl)-1H-benzo[d]imidazole-6-carboxylic acid] the figure was 0.235 nM. With `Cn1cc(C#Cc2ccc(COc3cccc(-c4cc(F)c(Cc5nc6c(F)cc(C(=O)O)cc6n5C[C@@H]5CCO5)cc4F)n3)cn2)cn1` [Example 391, (S)-2-(2,5-difluoro-4-(6-((6-((1-methyl-1H-pyrazol-4-yl)ethynyl)pyridin-3-yl)methoxy)pyridin-2-yl)benzyl)-4-fluoro-1-(oxetan-2-ylmethyl)-1H-benzo[d]imidazole-6-carboxylic acid] the figure was 0.305 nM.

`Cn1cc(C#Cc2cnc(COc3cccc(-c4cc(F)c(Cc5nc6c(F)cc(C(=O)O)cc6n5C[C@@H]5CCO5)cc4F)n3)c(F)c2)cn1` [Example 392, (S)-2-(2,5-difluoro-4-(6-((3-fluoro-5-((1-methyl-1H-pyrazol-4-yl)ethynyl)pyridin-2-yl)methoxy)pyridin-2-yl)benzyl)-4-fluoro-1-(oxetan-2-ylmethyl)-1H-benzo[d]imidazole-6-carboxylic acid] came in with an EC50 of 0.206 nM. To `CNC(=O)c1cc(Cl)c(COc2cccc(-c3cc(F)c(Cc4nc5c(F)cc(C(=O)O)cc5n4C[C@@H](C)OC)cc3F)n2)cn1` [Example 393, (R)-2-(4-(6-((4-chloro-6-(methylcarbamoyl)pyridin-3-yl)methoxy)pyridin-2-yl)-2,5-difluorobenzyl)-4-fluoro-1-(2-methoxypropyl)-1H-benzo[d]imidazole-6-carboxylic acid] belongs 0.777 nM; to `CNC(=O)c1cc(Cl)c(COc2cccc(-c3cc(F)c(Cc4nc5c(F)cc(C(=O)O)cc5n4C[C@@H]4CCO4)cc3C)n2)cn1` [Example 394, (S)-2-(4-(6-((4-chloro-6-(methylcarbamoyl)pyridin-3-yl)methoxy)pyridin-2-yl)-2-fluoro-5-methylbenzyl)-4-fluoro-1-(oxetan-2-ylmethyl)-1H-benzo[d]imidazole-6-carboxylic acid], 0.62 nM; to `Cn1cncc1C#Cc1ccc(COc2cccc(-c3cc(F)c(Cc4nc5c(F)cc(C(=O)O)cc5n4C[C@@H]4CCO4)cc3F)n2)c(F)c1` [Example 395, (S)-2-(2,5-difluoro-4-(6-((2-fluoro-4-((1-methyl-1H-imidazol-5-yl)ethynyl)benzyl)oxy)pyridin-2-yl)benzyl)-4-fluoro-1-(oxetan-2-ylmethyl)-1H-benzo[d]imidazole-6-carboxylic acid], 0.197 nM. `CCOc1nnc(COc2cccc(-c3cc(F)c(Cc4nc5ccc(C(=O)O)c(F)c5n4CCOC)cc3F)n2)s1` [Example 396, 2-(4-(6-((5-ethoxy-1,3,4-thiadiazol-2-yl)methoxy)pyridin-2-yl)-2,5-difluorobenzyl)-7-fluoro-1-(2-methoxyethyl)-1H-benzo[d]imidazole-6-carboxylic acid] came in with a concentration giving a half-maximal response (EC50) of 0.678 nM.

Compound `CCOc1nnc(COc2nc(-c3ccc(Cc4nc5ccc(C(=O)O)cc5n4[C@@H]4COCC4(C)C)c(F)c3)ccc2F)s1` [Example 397, (S)-1-(4,4-dimethyltetrahydrofuran-3-yl)-2-(4-(6-((5-ethoxy-1,3,4-thiadiazol-2-yl)methoxy)-5-fluoropyridin-2-yl)-2-fluorobenzyl)-1H-benzo[d]imidazole-6-carboxylic acid] came in with a 50% effective concentration (EC50) of 0.497 nM. With `CNC(=O)c1cc(Cl)c(COc2cccc(-c3cc(F)c(Cc4nc5c(F)cc(C(=O)O)cc5n4CC4(CF)CC4)c(F)c3F)n2)cn1` [Example 398, 2-(4-(6-((4-chloro-6-(methylcarbamoyl)pyridin-3-yl)methoxy)pyridin-2-yl)-2,3,6-trifluorobenzyl)-4-fluoro-1-((1-(fluoromethyl)cyclopropyl)methyl)-1H-benzo[d]imidazole-6-carboxylic acid] the figure was 0.017 nM.

Regarding `CNC(=O)c1cc(Cl)c(COc2cccc(-c3ccc(Cc4nc5ccc(C(=O)O)cc5n4[C@@H]4COCC4(C)C)c(F)c3)n2)cn1` [Example 399, (S)-2-(4-(6-((4-chloro-6-(methylcarbamoyl)pyridin-3-yl)methoxy)pyridin-2-yl)-2-fluorobenzyl)-1-(4,4-dimethyltetrahydrofuran-3-yl)-1H-benzo[d]imidazole-6-carboxylic acid], the EC50 was 0.01 nM.

The compound `COc1nnc(COc2cccc(-c3ccc(Cc4nc5ccc(C(=O)O)cc5n4[C@@H]4COCC4(C)C)cc3F)n2)s1` [Example 400, (S)-1-(4,4-dimethyltetrahydrofuran-3-yl)-2-(3-fluoro-4-(6-((5-methoxy-1,3,4-thiadiazol-2-yl)methoxy)pyridin-2-yl)benzyl)-1H-benzo[d]imidazole-6-carboxylic acid] displayed a concentration for a half-maximal effect (EC50) of 0.412 nM. For `COc1nnc(COc2cccc(-c3ccc(Cc4nc5ccc(C(=O)O)cc5n4[C@@H]4COCC4(C)C)c(F)c3)n2)s1` [Example 401, (S)-1-(4,4-dimethyltetrahydrofuran-3-yl)-2-(2-fluoro-4-(6-((5-methoxy-1,3,4-thiadiazol-2-yl)methoxy)pyridin-2-yl)benzyl)-1H-benzo[d]imidazole-6-carboxylic acid], the EC50 worked out at 0.487 nM.
